This is an account of results in patent publication US8507676B2, “Heterocyclic oxime compounds” (Novartis AG, priority 2009, dated 2013).

The target in series [1] is c-MET receptor tyrosine kinase, GST-c-MET(969-1390) (Homo sapiens (Human), UniProt P08581). Kind of series: EPK c-MET profiling assay (LanthaScreen TR-FRET kinase assay). As to conditions: recombinant GST-c-MET(969-1390), 2 μM ATP, 60 minutes at room temperature; read-out: c-Met biochem (IC50 nM). The class given is biochemical. (In general: TR-FRET usually uses a lanthanide donor and a delayed reading to cut background.)
Protocol: A number of compounds of the present invention were assayed in an antibody based kinase phosphorylation assay as follows.
EPK c-MET Profiling Assay:
The EPK kinase assay for c-MET receptor tyrosine kinase was developed, using the purified recombinant GST-fusion protein, containing the cytoplasmic domain of the enzyme.
The kinase assay is based on the LanthaScreen™ technology. LanthaScreen™ is the detection of Time-Resolved Fluorescence Resonance Energy Transfer (TR-FRET) using lanthanide chelates to measure interactions between various binding partners. In a TR-FRET kinase assay, a long-lifetime lanthanide donor species is conjugated to an antibody that specifically binds to a phosphorylated product of a kinase reaction that is labeled with a suitable acceptor fluorophore. This antibody-mediated interaction brings the lanthanide donor and the acceptor into proximity such that resonance energy transfer can take place, resulting in a detectable increase in the FRET signal.
The kinase reactions were performed in 384 well microtiter plates in a total reaction volume of 10.05 μL. […]
Subsequently 5 μL of detection mix (50 mM Tris/HCl, 2 mM DTT, 0.05% Tween20, 20 μM sodium orthovanadate, 1% BSA, 1 nM Tb-PY20 antibody) were added to the stopped reactions. After 45 minutes incubation in dark at room temperature, the plates were measured in a Perkinelmer Envision fluorescence reader.

Series [2] is described as follows: stability of the isolated compound at nucleophiles such as methanol. As to conditions: degrades into starting material 75-R. The format is physicochemical. The protocol:
Previously prepared (E)-1-(3-(1-(5,7-difluoroquinolin-6-yl)ethyl)-[1,2,4]triazolo[4,3-b]pyridazin-6-yl)ethanone oxime (75-R, 100 mg, 0.271 mmol) in anhydrous THF (8 mL) was added diphosgene (0.1 mL, 0.829 mmol) dropwise at 0° C., and the reaction mixture was heated at 50° C. for 4 hr. Oil bath was removed, and the reaction mixture was cooled in an ice-water bath. An ammonia solution (0.5 N in dioxane, 8.0 mL, 4.0 mmol) was added dropwise. The temperature was allowed to rise to rt naturally, and the reaction mixture was stirred at rt overnight. Solvent was evaporated, and the residue was purified by column chromatography (8% methanol in ethyl acetate as eluent) to afford 64 mg (45.8% yield) of title compound as white solid, which was unstable at nucleophiles such as methanol, and was pro to degrade into starting material 75-R. ^1H-NMR (400 MHz, DMSO-d6) δ ppm 8.96 (d, 1H), 8.44 (d, 1H), 8.34 (d, 1H), 8.10 (d, 1H), 7.56-7.74 (m, 2H), 7.34 (s br, 2H), 5.27 (q, 1H), 2.02 (d, 3H), 2.03 (s, 3H). LCMS (method B): [MH]^+=412, tR=2.25 min.

c-MET receptor tyrosine kinase, GST-c-MET(969-1390), sequence (P08581 969-1390): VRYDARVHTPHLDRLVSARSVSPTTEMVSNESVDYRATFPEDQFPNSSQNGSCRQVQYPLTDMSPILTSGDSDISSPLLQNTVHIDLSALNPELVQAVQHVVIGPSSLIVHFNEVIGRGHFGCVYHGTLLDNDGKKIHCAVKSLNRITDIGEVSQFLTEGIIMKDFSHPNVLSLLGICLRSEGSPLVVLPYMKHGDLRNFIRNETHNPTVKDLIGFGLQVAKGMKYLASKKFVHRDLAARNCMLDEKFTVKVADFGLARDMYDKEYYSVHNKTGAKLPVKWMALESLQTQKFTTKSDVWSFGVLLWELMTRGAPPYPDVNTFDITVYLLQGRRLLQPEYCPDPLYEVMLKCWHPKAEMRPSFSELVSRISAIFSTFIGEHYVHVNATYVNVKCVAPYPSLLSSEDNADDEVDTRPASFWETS

What is called IC50 is the midpoint of a concentration-inhibition curve. In the case of `C/C(=N\OCCO)c1ccc2nnc(C(F)(F)c3ccc4ncccc4c3)n2n1` [Example 50, (E)-1-(3-(Difluoro(quinolin-6-yl)methyl)-[1,2,4]triazolo[4,3-b]pyridazin-6-yl)ethanone O-2-hydroxyethyl oxime], the IC50 in series [1] was 1.5 nM.
On to `C/C(=N\OC(N)=O)c1ccc2nnc([C@H](C)c3c(F)cc4ncccc4c3F)n2n1` [Example 77-R, (R,E)-1-(3-(1-(5,7-difluoroquinolin-6-yl)ethyl)-[1,2,4]triazolo[4,3-b]pyridazin-6-yl)ethanone O-carbamoyl oxime], for which the “stability at nucleophiles such as methanol” value in series [2] is on record as “unstable”.
